Our source for the inhibition values is ChEMBL document CHEMBL6134901 (J Med Chem, 2025).

Each structure is given as a SMILES string.

For the assay, the system named is Clostridioides difficile. The experiment in a line: Antibacterial activity against Clostridium difficile ATTC43255 assessed as spore germination inhibition at 45 uM incubated for 60 mins by spectrometry relative to control. It is filed as functional. As to conditions: ATTC43255, 1 h.

For `c1nc2cc(-c3nc(-c4ccc(OC5CCCC5)cc4)no3)ccc2[nH]1`, the inhibition at 45 µM is less than 10%.
On to `NCCc1ccc(Oc2cc(-c3noc(-c4ccc(CN)cc4)n3)ccn2)cc1`, for which the inhibition at 45 µM is 27%.
As for `O=[N+]([O-])c1c[nH]c(-c2nc(-c3ccc(Oc4ccc(C(F)(F)F)cc4)cc3)no2)c1`, the inhibition at 45 µM was less than 10%.
Take `CCOc1ccc(-c2nc(-c3cccc4c3CCC4NCCO)no2)cc1OCC` (stereo not drawn): the inhibition at 45 µM is less than 10%.
The figure for `O=[N+]([O-])c1c[nH]c(-c2nc(-c3ccc(OC4CCCC4)cc3)no2)n1` is less than 10%; for `NCc1ccc(-c2nc(-c3ccc(Oc4ccc(C(F)(F)F)cc4)cn3)no2)cc1` it is 24%.
The figure for `NCc1ccc(-c2nc(-c3ccnc(-c4ccc(C(F)(F)F)cc4)c3)no2)cc1` is 71%.
With `CC(C)Oc1ncc(-c2nc(-c3cccc4c3ccn4CCCC(=O)O)no2)cc1Cl` [GSK-2018682], the inhibition at 45 µM is less than 10%.
In the case of `CC(C)(C)OC(=O)N1CCC(Nc2c[nH]nc2-c2nc(-c3ccc(Oc4ccc(C(F)(F)F)cc4)cc3)no2)CC1`, the inhibition at 45 µM is less than 10%.
On to `Oc1ccc(-c2nc(-c3ccc(Oc4ccccc4CBr)cc3)no2)cc1`, for which the inhibition at 45 µM was 27%.
To `Nc1ccc(-c2nc(-c3ccc(OC4CCCC4)cc3)no2)cc1` belongs less than 10%; to `CCN(CC)CCc1nc(-c2ccccc2)no1`, less than 10%; to `NCc1ccc(-c2nc(-c3ccc(Oc4ccc(F)c(F)c4)cc3)no2)cc1`, 44%.
The figure for `c1cc2cc(-c3nc(-c4ccc(OC5CCCC5)cc4)no3)ccc2[nH]1` is less than 10%; for `Oc1ccc(-c2nc(-c3ccc(Oc4ccc(C(F)(F)F)cc4)nc3)no2)cc1` it is less than 10%; for `Clc1c[nH]nc1-c1nc(-c2ccc(OC3CCCC3)cc2)no1` it is less than 10%.
The figure for `NCc1ccc(-c2nc(-c3ccc(OC(F)(F)F)cc3)no2)cc1` is 33%.
Turning to `FC(F)(F)c1ccc(Oc2ccc(-c3noc(-c4ccc(Br)cc4)n3)cc2)cc1`, the inhibition at 45 µM is less than 10%.
The figure for `Nc1ccc(-c2nc(-c3ccc(Oc4ccc(C(F)(F)F)cc4)cc3)no2)cc1F` is less than 10%; for `FC(F)(F)c1ccc(Oc2ccc(-c3noc(-c4nc[nH]n4)n3)cc2)cc1` it is less than 10%.
The figure for `Oc1ccc(-c2nc(-c3ccc(C(O)C(F)(F)F)cc3)no2)cc1` (stereo not drawn) is less than 10%; for `COc1ccc(-c2nc(-c3ccc(OC4CCCC4)cc3)no2)cc1` it is less than 10%; for `COC(OC)c1ccc(-c2noc(-c3ccc(O)cc3)n2)cc1` it is less than 10%.
To `CC(C)(C)OC(=O)NCc1ccc(-c2nc(-c3ccc(OC4CCCC4)cc3)no2)cc1` belongs less than 10%; to `c1cc(-c2noc(-c3ccc4c(c3)CCN4)n2)ccc1OC1CCCC1`, less than 10%; to `CCCOc1ccc(-c2noc(-c3ccc(CN)cc3)n2)cc1`, 12%.
For `O=C1C[C@@H](c2nc(-c3ccc(Oc4ccc(C(F)(F)F)cc4)cc3)no2)CN1`, the inhibition at 45 µM is less than 10%.
To `NCc1ccc(-c2nc(-c3ccc(O[C@@H]4CCNC4)cc3)no2)cc1` belongs less than 10%.
The figure for `NCCCCc1nc(-c2ccc(OC3CCCC3)cc2)no1` is less than 10%; for `Oc1ccc(-c2nc(-c3ccc4c(c3)OCO4)no2)cc1` it is less than 10%; for `COc1cc(-c2nc(-c3ccc(Oc4ccc(C(F)(F)F)cc4)cc3)no2)ccc1O` it is less than 10%.
To `FC(F)(F)c1ccc(Oc2ccc(-c3noc(-c4cn[nH]n4)n3)cc2)cc1` belongs less than 10%; to `Nc1cc(-c2nc(-c3ccc(Oc4ccc(C(F)(F)F)cc4)cc3)no2)cnc1O`, less than 10%; to `Nc1cc(Oc2ccccc2)ccc1-c1noc(-c2ccc(O)cc2)n1`, 17%.
Take `Oc1ccc(-c2nc(-c3ccc(Oc4ccc(I)cc4)cc3)no2)cc1`: the inhibition at 45 µM amounted to 39%.
To `O=[N+]([O-])c1cc(Oc2ccc(C(F)(F)F)cc2)cnc1-c1noc(-c2ccc(O)cc2)n1` belongs less than 10%; to `OCC#Cc1c[nH]nc1-c1nc(-c2ccc(Oc3ccc(C(F)(F)F)cc3)cc2)no1`, less than 10%.
The figure for `COc1ccc(-c2noc(-c3ccc(CN)cc3)n2)cc1` is less than 10%.
To `Oc1ccc(-c2nc(-c3ccc(Oc4ccc(C(F)(F)F)cc4)cc3)no2)cn1` belongs less than 10%; to `FC(F)(F)c1ccc(Oc2ccc(-c3noc(-c4n[nH]c5ccccc45)n3)cc2)cc1`, less than 10%.
In the case of `NCc1ccc(-c2nc(-c3ccc(OC4CCCCC4)cc3)no2)cc1`, the inhibition at 45 µM came out at 43%.
To `C#CCOc1ccc(-c2noc(-c3ccc(O)cc3)n2)cc1` belongs less than 10%; to `Cc1c(Cl)c(C)[n+]([O-])c(Cl)c1-c1noc(-c2cc(O)c(O)c([N+](=O)[O-])c2)n1` [OPICAPONE], less than 10%; to `CCOc1ccc(-c2noc(-c3ccc(O)cc3)n2)cc1`, less than 10%.
The figure for `FC(F)(F)c1ccc(Oc2ccc(-c3noc(-c4c[nH]cn4)n3)cc2)cc1` is less than 10%; for `CNCc1ccc(-c2nc(-c3ccc(OC4CCCC4)cc3)no2)cc1` it is 37%; for `CS(=O)(=O)Nc1ccc(Cc2noc(-c3ccc4[nH]cc(CCN)c4c3)n2)cc1` [L-694247] it is less than 10%.
With `Oc1ccc(-c2nc(-c3ccc4oc5ccc(F)cc5c4c3)no2)cc1`, the inhibition at 45 µM was less than 10%.
The figure for `O=C(O)c1cccc(-c2noc(-c3ccccc3F)n2)c1` is less than 10%; for `Oc1ccc(-c2nc(N3CCN(c4cccc(Cl)c4)CC3)no2)cc1` it is less than 10%; for `Oc1ccc(-c2nc(-c3ccc(Oc4ccc(C(F)(F)F)cc4)cc3)no2)cc1O` it is less than 10%.
To `Oc1ccc(-c2nc(-c3ccc(Oc4cccc(I)c4)cc3)no2)cc1` belongs 37%; to `O=C(O)c1ccc(-c2nc(-c3ccc(OC4CCCC4)cc3)no2)cc1`, less than 10%.
The figure for `COc1ccc(-c2nc(-c3ccc(Oc4ccc(C(F)(F)F)cc4)cc3)no2)cc1OC` is less than 10%.
With `NCc1ccc(-c2nc(-c3ccc(OC(F)F)cc3)no2)cc1`, the inhibition at 45 µM was less than 10%.
To `Oc1ccc(-c2nc(-c3ccc(Oc4ccc(C(F)(F)F)cc4)cc3)no2)cc1` belongs 14%.
To `N#Cc1ccc(-c2nc(-c3ccc(OC4CCCC4)cc3)no2)cc1` belongs less than 10%; to `CC(C)(C)OC(=O)NCc1ccc(-c2nc(-c3ccc(Oc4ccc(F)c(F)c4)cc3)no2)cc1`, less than 10%.
To `FC(F)(F)c1ccc(Oc2ccc(-c3noc(-c4ccncc4)n3)cc2)cc1` belongs less than 10%.
Take `Oc1ccc(-c2nc(-c3ccc(OC4CCC4)cc3)no2)cc1`: the inhibition at 45 µM was less than 10%.
To `CC(C)Cc1ccc(-c2nc(-c3ccc(CN4CC(C(=O)O)C4)cc3)no2)cc1` belongs less than 10%; to `COc1ccc(-c2nc(-c3ccc(Oc4ccc(C(F)(F)F)cc4)cc3)no2)cc1[N+](=O)[O-]`, less than 10%.
`O=C(Nc1c[nH]nc1-c1nc(-c2ccc(Oc3ccc(C(F)(F)F)cc3)cc2)no1)c1ccccn1`: the inhibition at 45 µM was less than 10%.
To `NCc1ccc(-c2nc(-c3ccc(OC4CCCC4)cc3)no2)cc1` belongs 41%; to `O=Cc1ccc(-c2noc(-c3ccc(O)cc3)n2)cc1`, less than 10%; to `Oc1ccc(-c2nc(N3CCN(c4ccccc4)CC3)no2)cc1`, 18%.
The figure for `Oc1ccc(-c2nc(-c3ccc(OC(F)(F)F)cc3)no2)cc1` is less than 10%; for `CCCCOc1ccc(-c2noc(-c3ccc(CNC(=O)OC(C)(C)C)cc3)n2)cc1` it is less than 10%; for `O=C1C[C@H](c2nc(-c3ccc(Oc4ccc(C(F)(F)F)cc4)cc3)no2)CN1` it is less than 10%.
To `CC(C)(C)OC(=O)NCc1ccc(-c2nc(-c3ccc(Oc4ccc(C(F)(F)F)cc4)cc3)no2)cc1` belongs less than 10%; to `NCc1ccc(-c2nc(-c3ccc(OC4CCC4)cc3)no2)cc1`, 24%; to `Oc1ccc(-c2nc(-c3ccc(Oc4ccc(C(F)(F)F)cc4)cc3)no2)cc1F`, 14%.
On to `NCc1ccc(-c2nc(-c3ccc(CN4CCCC4)cc3)no2)cc1`, for which the inhibition at 45 µM is less than 10%.
To `Oc1ccc(-c2noc(-c3ccc(O)cc3)n2)cc1` belongs less than 10%; to `Oc1ccc(-c2nc(-c3ccc4oc5ccccc5c4c3)no2)cc1`, less than 10%; to `Oc1ccc(-c2nc(-c3ccc(N4CCOCC4)cc3)no2)cc1`, less than 10%.
In the case of `O=[N+]([O-])c1cn(CCO)c(-c2nc(-c3ccc(OC4CCCC4)cc3)no2)n1`, the inhibition at 45 µM is less than 10%.
As to `Oc1ccc(-c2nc(-c3ccc(OC4CCOC4)cc3)no2)cc1` (stereo not drawn), the inhibition at 45 µM is less than 10%.
In the case of `CCCCNc1c[nH]nc1-c1nc(-c2ccc(Oc3ccc(C(F)(F)F)cc3)cc2)no1`, the inhibition at 45 µM is less than 10%.
The figure for `FC(F)(F)c1ccc(Oc2ccc(-c3noc(-c4n[nH]cc4NC4CCCCC4)n3)cc2)cc1` is less than 10%; for `FC(F)(F)c1ccc(Oc2ccc(-c3noc(-c4cn[nH]c4)n3)cc2)cc1` it is less than 10%; for `CCC(C)Nc1c[nH]nc1-c1nc(-c2ccc(Oc3ccc(C(F)(F)F)cc3)cc2)no1` (stereo not drawn) it is less than 10%.
The figure for `NCCCCc1nc(-c2ccc(Oc3ccc(F)cc3)cc2)no1` is less than 10%; for `Oc1ccc(-c2nc(-c3ccc(OC4CC4)cc3)no2)cc1` it is less than 10%; for `FC(F)(F)c1ccc(Oc2ccc(-c3noc(-c4ccc5[nH]ccc5c4)n3)cc2)cc1` it is less than 10%.
The figure for `O=[N+]([O-])c1cc(-c2nc(-c3ccc(Oc4ccc(C(F)(F)F)cc4)cc3)no2)cnc1O` is less than 10%.
As to `FC(F)(F)c1ccc(Oc2ccc(-c3noc(-c4n[nH]cc4Br)n3)cc2)cc1`, the inhibition at 45 µM is less than 10%.
To `FC(F)(F)c1ccc(Oc2ccc(-c3noc(-c4n[nH]cc4NC4CCCC4)n3)cc2)cc1` belongs less than 10%.
